Measured values reported in patent US20200062719A1, “Application of Imidazopyridine Derivatives in Regenerative Medicine” (University of Heidelberg, priority 2018, published 2020).
pIC50: −log10 of the molar value.

Legend:
[1] = tested on: Oct4; test: Luciferase reporter assay in NCCIT-Oct4 cells; type: cell-based, human
Experimental: The ability of the lead compound to induce Oct4 at translational level was tested in a luciferase reporter cell line in human embryonic carcinoma NCCIT cells driven by Oct4 response elements (NCCIT-Oct4). The compound lead to a nearly 10-fold induction of Oct4 at 10 nM compared to untreated cells (FIG. 1B). Consequently, the lead compound was named “Oct4 inducing compound 3” (O4I3).
Luciferase reporter assay was performed using Beatle Juice Kit (PJK, Germany) according to the manufacturer's instruction. NCCIT-Oct and NCCIT-Nanog reporter cells were plated into a 24-well plate (100,000 cells/well) for 24 h. Cells were treated with compounds as indicated and harvested with luciferase lysis buffer (25 mM Tris phosphate buffer pH=7.8, 4 mM EGTA, 1% Triton X-100, 10% glycerol and 2 mM fresh DTT, filtered through 0.45 μm sterile filter) at 37° C. for 15 min. The protein concentration was determined by Bradford assay (Sigma, Germany). 100 μL reaction mixture containing luciferin and ATP was added to 20 μL cell lysis in a white plate (Gibco, Germany), incubated for 5 min and measured by a luminometer plate-reader. The activity was determined as percent luminous intensity of treated cells over control cells from at least five-independent experiments.

[2] = tested on: hiPSCs; test: Maintenance of hiPSCs, FACS of Tra-1-81 and Oct4 over passages; type: cell-based, human; settings: 50 nM O4I3, FACS
Experimental: Since O4I3 induced sustainable expression of Oct4 and Nanog, the inventors questioned if it supports iPSC self-renewal in single cell expansion. Therefore, the viability of iPSCs, after replating Accutase®-dissociated single iPSCs, was tested in the presence or absence of O4I3. Rocki (Y-27632) was used for the first 24 h to increase iPSCs survival. A nearly 300% higher viability in cells treated with O4I3 (1 nM) was observed. Using 50 nM of O4I3 even 400% increase was observed (FIG. 2A). FACS analysis confirmed homologous expression of iPSCs markers, Tra-1-81 and Oct4, for at least 30 passages (FIG. 2B).
iPSCs were seeded in a 6-well plate coated with Geltrex. Cells were harvested, fixed and permeabilized (if appropriately) as known in the art (Cheng et al, Mol Oncol. 2016 June; 10(6):806-24). Fixed cells were incubated with the primary antibody for 24 h at 4° C. and with the secondary antibody for 1 h at room temperature.

[3] = tested on: neural stem cells; test: Maintenance of neural stem cells, MTT viability; type: cell-based; settings: starting from 1 nM
Experimental: Neural stem cells were cultivated in SPN medium (DMEM-F12 Knockout medium containing 2% StemPro® NSC SFM, EGF (20 ng/mL) and FGF (20 ng/mL)) until cell confluence reached 80-90%. Acutase was used to get single cell suspension and washed with PBS. 20,000 cells/[…] were seeded into matrigel-coated plates using SPN medium with or without O4I3. The MTT assay was applied to determine cell viability.
The self-renewal of multipotent neural stem cells was also tested with the compound of the current invention. Neural stem cells were cultivated in SPN medium with or without O4I3 at different final concentrations (FIG. 7). The MTT assay was applied to determine cell viability. Starting from a concentration of 1 nM O4I3 the viability of neural stem cells was increased in comparison to mock treated neural stem cells.

[4] = target: methylated H3K4; test: In vitro H3K4 methylation assay (Epiquik histone demethylase H3K4 specific kit); type: biochemical; settings: in vitro methylation assay; read-out: IC50, protection of methylated H3K4
Experimental: (§1) Epiquik histone demethylase (H3K4 specific) activity/inhibition assay kit (Epigentek, Biocat, Germany) was used to measure the protective effect of O4I3 and zolpidem on the methylation of H3K4. Their inhibitory effects on LSD1, KDM5s, and KDM4 were determined using Epigenase jarid demethylase activity/inhibition assay kit, Epigenase JMJD2 demethylase activity/inhibition assay kit and EpiQuik histone demethylase LSD1 activity/inhibition assay kit (Epigentek, Biocat, Germany). The total nuclear extraction was used according to manufacturer's instructions. For measuring KDM5A, KDM5B, KDM5C, and KDM5D activity, magnetic beads were used to immunoprecipitate the respective enzymes from 10^8 cells according to the manufacturer's instructions (Cell Signaling Technologies).

[5] = target: T1, KDM5D (Homo sapiens, UniProt Q9BY66); test: KDM5D inhibition, enzyme immunoprecipitated from cells; type: biochemical
T1 construct: magnetic beads were used to immunoprecipitate the respective enzymes from 10^8 cells; endogenous in cells
T1 sequence (Q9BY66 whole entry): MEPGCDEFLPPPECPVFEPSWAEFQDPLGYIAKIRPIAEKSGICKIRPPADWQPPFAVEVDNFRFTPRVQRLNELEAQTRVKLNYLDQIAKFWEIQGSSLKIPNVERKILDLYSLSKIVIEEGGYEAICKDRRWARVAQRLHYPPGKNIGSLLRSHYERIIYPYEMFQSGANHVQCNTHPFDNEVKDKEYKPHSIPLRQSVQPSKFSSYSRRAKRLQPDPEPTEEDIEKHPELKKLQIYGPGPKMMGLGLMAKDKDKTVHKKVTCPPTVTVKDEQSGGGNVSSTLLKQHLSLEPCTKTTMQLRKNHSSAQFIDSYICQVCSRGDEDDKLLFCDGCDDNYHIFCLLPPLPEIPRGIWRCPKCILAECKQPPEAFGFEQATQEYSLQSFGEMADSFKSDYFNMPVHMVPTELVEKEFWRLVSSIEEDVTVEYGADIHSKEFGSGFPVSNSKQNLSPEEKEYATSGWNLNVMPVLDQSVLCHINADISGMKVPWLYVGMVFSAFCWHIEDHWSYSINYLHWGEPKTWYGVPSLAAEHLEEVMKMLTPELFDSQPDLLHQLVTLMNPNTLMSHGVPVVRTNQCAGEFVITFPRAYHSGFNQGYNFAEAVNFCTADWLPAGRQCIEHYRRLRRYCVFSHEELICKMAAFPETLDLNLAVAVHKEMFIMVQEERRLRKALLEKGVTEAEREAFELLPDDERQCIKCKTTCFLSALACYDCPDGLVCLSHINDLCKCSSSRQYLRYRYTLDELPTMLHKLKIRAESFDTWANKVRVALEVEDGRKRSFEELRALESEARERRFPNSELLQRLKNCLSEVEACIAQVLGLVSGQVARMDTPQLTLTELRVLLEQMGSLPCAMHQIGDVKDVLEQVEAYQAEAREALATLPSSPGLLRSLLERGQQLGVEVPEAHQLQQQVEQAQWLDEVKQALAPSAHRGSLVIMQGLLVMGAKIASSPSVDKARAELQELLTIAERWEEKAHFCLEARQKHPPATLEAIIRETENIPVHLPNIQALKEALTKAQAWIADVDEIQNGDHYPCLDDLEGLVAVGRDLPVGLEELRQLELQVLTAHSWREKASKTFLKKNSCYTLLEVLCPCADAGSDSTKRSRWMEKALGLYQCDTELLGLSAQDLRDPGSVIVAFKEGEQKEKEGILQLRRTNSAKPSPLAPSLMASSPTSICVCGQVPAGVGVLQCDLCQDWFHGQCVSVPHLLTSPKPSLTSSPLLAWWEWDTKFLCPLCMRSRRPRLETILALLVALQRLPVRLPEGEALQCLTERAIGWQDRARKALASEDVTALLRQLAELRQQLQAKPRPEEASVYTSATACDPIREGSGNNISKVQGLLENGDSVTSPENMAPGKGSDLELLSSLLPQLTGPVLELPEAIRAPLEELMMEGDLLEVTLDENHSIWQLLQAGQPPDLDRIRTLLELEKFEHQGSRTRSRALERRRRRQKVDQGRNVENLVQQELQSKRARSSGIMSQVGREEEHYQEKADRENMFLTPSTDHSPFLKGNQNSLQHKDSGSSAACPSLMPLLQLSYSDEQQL
From the text: (§2) In mammalian cells, the KDM5 family consists of four members, namely, KDM5A (known as JARID1A), KDM5B (known as JARID1B or PLU1), KDM5C (JARID1C), and KDM5D (JARID1D or SMCY). […] Next, the inventors tested four KDM chemical inhibitors. […] The inventors detected the induction of OCT4, SOX2, and E-Cadherin expression in JIB-04-treated HFs (FIG. 18D).
as §1

[6] = target: T2, KDM5C (Homo sapiens, UniProt P41229); test: KDM5C inhibition, enzyme immunoprecipitated from cells; type: biochemical
T2 construct: magnetic beads were used to immunoprecipitate the respective enzymes from 10^8 cells; endogenous in cells
T2 sequence (P41229 whole entry): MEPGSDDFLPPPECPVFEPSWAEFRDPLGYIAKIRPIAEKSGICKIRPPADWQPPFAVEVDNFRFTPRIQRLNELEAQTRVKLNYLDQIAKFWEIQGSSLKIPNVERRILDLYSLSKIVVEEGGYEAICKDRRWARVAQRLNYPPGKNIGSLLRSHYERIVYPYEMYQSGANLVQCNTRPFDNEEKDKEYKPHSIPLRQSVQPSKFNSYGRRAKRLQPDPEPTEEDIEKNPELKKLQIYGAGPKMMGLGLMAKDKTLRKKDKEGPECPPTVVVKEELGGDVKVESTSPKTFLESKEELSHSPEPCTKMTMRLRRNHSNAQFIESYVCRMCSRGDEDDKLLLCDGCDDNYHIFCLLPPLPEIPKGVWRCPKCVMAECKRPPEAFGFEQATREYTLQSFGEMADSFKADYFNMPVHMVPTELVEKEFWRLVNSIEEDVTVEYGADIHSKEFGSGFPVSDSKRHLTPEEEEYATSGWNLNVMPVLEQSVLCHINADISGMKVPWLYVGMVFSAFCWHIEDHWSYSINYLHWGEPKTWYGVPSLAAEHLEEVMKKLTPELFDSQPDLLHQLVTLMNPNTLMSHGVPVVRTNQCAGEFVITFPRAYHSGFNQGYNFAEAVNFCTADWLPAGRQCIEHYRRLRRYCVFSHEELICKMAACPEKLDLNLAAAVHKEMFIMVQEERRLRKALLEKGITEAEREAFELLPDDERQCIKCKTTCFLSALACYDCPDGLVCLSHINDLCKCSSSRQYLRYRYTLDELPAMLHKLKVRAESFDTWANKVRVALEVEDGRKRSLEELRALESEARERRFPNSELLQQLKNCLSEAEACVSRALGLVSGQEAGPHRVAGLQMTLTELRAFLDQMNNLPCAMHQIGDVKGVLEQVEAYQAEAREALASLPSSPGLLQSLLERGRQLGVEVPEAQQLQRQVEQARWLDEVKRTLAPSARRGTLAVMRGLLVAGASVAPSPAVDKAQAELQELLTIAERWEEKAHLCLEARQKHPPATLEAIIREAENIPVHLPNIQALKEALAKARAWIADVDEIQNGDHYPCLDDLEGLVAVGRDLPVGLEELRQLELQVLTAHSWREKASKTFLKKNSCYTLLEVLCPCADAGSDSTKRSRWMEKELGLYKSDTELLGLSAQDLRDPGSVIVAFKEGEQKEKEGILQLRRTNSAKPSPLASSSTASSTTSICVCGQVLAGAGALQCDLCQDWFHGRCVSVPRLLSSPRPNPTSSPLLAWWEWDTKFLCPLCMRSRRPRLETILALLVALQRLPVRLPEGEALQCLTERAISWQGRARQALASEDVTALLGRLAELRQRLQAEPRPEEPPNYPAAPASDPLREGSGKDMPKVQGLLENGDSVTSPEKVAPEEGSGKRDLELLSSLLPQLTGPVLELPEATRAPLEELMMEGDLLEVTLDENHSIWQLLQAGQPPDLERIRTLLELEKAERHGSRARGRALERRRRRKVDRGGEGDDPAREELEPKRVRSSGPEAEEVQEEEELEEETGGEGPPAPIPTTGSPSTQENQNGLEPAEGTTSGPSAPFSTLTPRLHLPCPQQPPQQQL
From the text: as §2, §1

[7] = tested on: hiPSCs; test: Differentiation markers in hiPSCs at high concentration; type: cell-based, human; settings: 10 μM

Compound: Cc1ccc(-c2cn3cc(C)ccc3n2)cc1 [O4I3, 6-methyl-2-(p-tolyl)imidazo[1,2-a]pyridine]
- induction of Oct4 compared to untreated cells ([1]; 10 nM, NCCIT-Oct4 cells, 48 h): ~10 fold
- time course of Oct4 activation ([1]; over 4 days): continuous and constant activation
- homologous expression of Tra-1-81 and Oct4, number of passages [2]: at least 30 passages
- viability of neural stem cells in comparison to mock treated [3]: increased
- pIC50 [4]: 7.70
- IC50 less potent than for KDM5A, KDM5D [5]: 20 fold
- IC50 less potent than for KDM5A, KDM5C [6]: 40 fold
- differentiation markers T and Gata4 [7]: induction of those markers
